Assay results published in US6515112B2, “Cores for technetium radiopharmaceuticals” (Amersham PLC, priority 1989, dated 2003).

How the values were obtained:
[1] = Animal biodistribution studies of 99mTc complexes in rats; type: in vivo, Male Sprague Dawley rats; design: Heart / Blood / Muscle / Lung / Liver / Kidney / Bladder & Urine / Brain: unit not given here; conditions: i.v. tail vein
Method: Complex Preparation: 20-25 μl of hydrazine was added to 2 cm^3 of absolute ethanol, then ^99mTcO4^−(0.2-3.0 GBq) and 10 mg of ligand were added to the solution. This mixture was heated to 120° C. for 30-60 minutes, cooled to room temperature and analyzed. For biodistribution studies the total volume of he preparation was made up to 5 cm^3 by the addition of sterile saline solution.
Animal Biodistribution Studies: Six Male Sprague Dawley rats were infected while under light ether anaesthesia with 0.1 cm^3 of preparation (i.v., tail vein) and half were sacrificed by cervical dislocation while under ether anaesthesia at the appropriate time interval post-infection and dissected. Organs were weighed and their activities measured in an ionisation chamber. For the purposes of calculations blood was assumed to constitute 5.8% of the total body weight, muscle was assumed to be 43% and the lungs were assumed to weigh 1 g.

[2] = Stability to air and moisture (observation); type: physicochemical; conditions: 99Tc complex, isolated solid
[3] = Solubility in solvents (observation); type: physicochemical; conditions: 99Tc complex, organic solvents

Molecule	Bladder & Urine ([1]; Time P. I. 2)	Blood ([1]; Time P. I. 2)	Heart ([1]; Time P. I. 2)	Kidney ([1]; Time P. I. 2)	Liver ([1]; Time P. I. 2)	Lung ([1]; Time P. I. 2)	Muscle ([1]; Time P. I. 2)	Bladder & Urine ([1]; Time P. I. 60)	Blood ([1]; Time P. I. 60)	Heart ([1]; Time P. I. 60)	Kidney ([1]; Time P. I. 60)	Liver ([1]; Time P. I. 60)	Lung ([1]; Time P. I. 60)	Muscle ([1]; Time P. I. 60)	S. I. ([1]; Time P. I. 60)	stability to air / moisture [2]	solubility [3]	further results
CP(C)COCP(C)C (99mTc complex, metal not drawn) [PL28]	0.11	4.18	1.12	9.41	17.8	1.18	30.2	10.9	0.46	0.65	5.90	5.95	0.62	27.4	39.6	–	–	Brain ([1]; Time P. I. 2): 0.04; Brain ([1]; Time P. I. 60): 0.02
CCOCC(COCC)(CP(C)C)CP(C)C (99mTc complex, metal not drawn) [PL42]	0.06	28.6	1.22	5.35	22.8	2.56	18.1	2.61	8.99	1.19	3.52	14.7	1.57	21.3	31.8	–	–	H/Bl ([1]; Time P. I. 2): 0.59; H/Li ([1]; Time P. I. 2): 0.73; S. I. ([1]; Time P. I. 2): 7.66; H/Bl ([1]; Time P. I. 60): 2.13; H/Li ([1]; Time P. I. 60): 1.12
COCCC(CCOC)(CP(C)C)CP(C)C (99mTc complex, metal not drawn) [PL50]	0.09	4.38	0.83	12.0	34.8	1.02	18.7	6.76	0.42	0.65	6.81	4.35	0.43	14.9	57.9	–	–	H/Bl ([1]; Time P. I. 2): 2.68; H/Li ([1]; Time P. I. 2): 0.31; S. I. ([1]; Time P. I. 2): 12.8; H/Bl ([1]; Time P. I. 60): 22.2; H/Li ([1]; Time P. I. 60): 1.27
CCCC[N+](CCCC)(CCCC)CCCC.Cc1ccc([N]=[Tc-]([Cl])([Cl])([Cl])[Cl])cc1 [Complex 1, Tetrabutylammonium(1+)tetrachloro(p-tolylimido) technetate (V) (1−)]	–	–	–	–	–	–	–	–	–	–	–	–	–	–	–	quite sensitive to adventitious moisture	–	–
CCCC[N+](CCCC)(CCCC)CCCC.Cc1ccc([N]=[Tc-]([Br])([Br])([Br])[Br])cc1 [Complex 2, Tetrabutylammonium(1+)tetrabromo(p-tolylimido) technetate (V) (1−)]	–	–	–	–	–	–	–	–	–	–	–	–	–	–	–	quite sensitive to adventitious moisture	–	–
Clc1ccc(N=[N][Tc]([Cl])([N]=Nc2ccc(Cl)cc2)([PH](c2ccccc2)(c2ccccc2)c2ccccc2)[PH](c2ccccc2)(c2ccccc2)c2ccccc2)cc1 [Complex 9, [TcCl(NNC6H4Cl)2(PPh3)2]]	–	–	–	–	–	–	–	–	–	–	–	–	–	–	–	air-stable	reasonably soluble	–
O=C1[O][Tc]([Cl])([Cl])([P+](c2ccccc2)(c2ccccc2)c2ccccc2)([P+](c2ccccc2)(c2ccccc2)c2ccccc2)=[N]c2ccccc21 [Complex 18, [TcCl2(NC6H4CO2)(PPh3)2]]	–	–	–	–	–	–	–	–	–	–	–	–	–	–	–	–	soluble in DMF and CH2Cl2	–
[N]#[Tc]([Cl])([Cl])([P](c1ccccc1)(c1ccccc1)c1ccccc1)[P](c1ccccc1)(c1ccccc1)c1ccccc1 [Example 7, TcNCl2(Ph3)2]	–	–	–	–	–	–	–	–	–	–	–	–	–	–	–	air-stable	quite soluble in CH2Cl2 and insoluble in ether, petrol and alcohols	–
CN([N]=[Tc]([Cl])([Cl])([Cl])([P](c1ccccc1)(c1ccccc1)c1ccccc1)[P](c1ccccc1)(c1ccccc1)c1ccccc1)c1ccccc1 [Example 10, TcNNPhMe(PPh3)2Cl3]	–	–	–	–	–	–	–	–	–	–	–	–	–	–	–	air-stable	reasonably soluble	–
COCCOCC(COCCOC)(CP(C)C)CP(C)C [PL43]	0.16	21.5	0.55	9.19	21.4	1.47	21.7	25.4	1.14	0.26	2.32	9.08	0.22	10.9	45.6	–	–	H/Bl ([1]; Time P. I. 2): 0.41; H/Li ([1]; Time P. I. 2): 0.38; S. I. ([1]; Time P. I. 2): 8.6; H/Bl ([1]; Time P. I. 60): 3.83; H/Li ([1]; Time P. I. 60): 0.40
[Cl][Tc]([N]=Nc1ccccc1)([N]=Nc1ccccc1)([PH](c1ccccc1)(c1ccccc1)c1ccccc1)[PH](c1ccccc1)(c1ccccc1)c1ccccc1 [[TcCl(NNPh)2(PPh3)2], [Tc(NNPh)2Cl(PPh3)2]]	–	–	–	–	–	–	–	–	–	–	–	–	–	–	–	–	somewhat insoluble	solubility ([3]; listed as Tc(NNPh)2Cl(PPh3)2): only partially soluble in halogenated solvents and insoluble in alcohols
[TC(NNC6H4Cl)2(N2S2)]x [Complex 17]	–	–	–	–	–	–	–	–	–	–	–	–	–	–	–	–	too insoluble for satisfactory analysis by NMR	–
[Tc(NC6H4Z)Cl(dppe)2] (BPh4) Z═CH3 [Complex 6]	–	–	–	–	–	–	–	–	–	–	–	–	–	–	–	air-stable	quite soluble in CH2Cl2 and insoluble in ether, petrol and alcohols	–
[TcN(dppe)2Cl][PF6] [Example 8]	–	–	–	–	–	–	–	–	–	–	–	–	–	–	–	air-stable	quite soluble in CH2Cl2 and insoluble in ether, petrol and alcohols	–
[Tc^III(NNC6H4NO2) (Cl(dmpe)2]^+	0.08	5.68	1.15	9.47	22.4	2.27	26.2	7.28	0.92	0.67	9.47	12.3	1.04	16.8	33.8	–	–	Brain ([1]; Time P. I. 2): 0.12; H/Bl ([1]; Time P. I. 2): 3.00; H/Li ([1]; Time P. I. 2): 0.72; S. I. ([1]; Time P. I. 2): 13.0; Brain ([1]; Time P. I. 60): 0.06; H/Bl ([1]; Time P. I. 60): 11.0; H/Li ([1]; Time P. I. 60): 0.76
